Data: publication PMC11904604, “MRM-based LC-MS method for accurate C-peptide quantitation” (Journal of Mass Spectrometry and Advances in the Clinical …, 2025)

Assay: in vitro
Conditions: human, serum

- metabolised at 48 h, 0.53 nmol/L: 2.4%
- metabolised at 48 h, 2.88 nmol/L: 6.3%
SMILES: CC(C)C[C@H](NC(=O)[C@H](C)NC(=O)[C@H](CC(C)C)NC(=O)[C@@H]1CCCN1C(=O)[C@H](CCC(N)=O)NC(=O)[C@H](CC(C)C)NC(=O)[C@H](CO)NC(=O)CNC(=O)[C@H](C)NC(=O)CNC(=O)[C@@H]1CCCN1C(=O)CNC(=O)CNC(=O)CNC(=O)[C@H](CC(C)C)NC(=O)[C@H](CCC(=O)O)NC(=O)[C@@H](NC(=O)[C@H](CCC(N)=O)NC(=O)CNC(=O)[C@@H](NC(=O)[C@H](CCC(N)=O)NC(=O)[C@H](CC(C)C)NC(=O)[C@H](CC(=O)O)NC(=O)[C@H](CCC(=O)O)NC(=O)[C@H](C)NC(=O)[C@@H](N)CCC(=O)O)C(C)C)C(C)C)C(=O)N[C@@H](CCC(=O)O)C(=O)NCC(=O)N[C@@H](CO)C(=O)N[C@@H](CC(C)C)C(=O)N[C@@H](CCC(N)=O)C(=O)O [C-peptide]
